Results reported in article PMC10377753, “Pharmacokinetic and pharmacodynamic properties of polymyxin B in Escherichia coli and Klebsiella pneumoniae murine infection models” (Journal of Antimicrobial Chemotherapy, 2023).
Structures can show the parent of a compound that is named as a salt. Bridge positions count the residues as written; N and C are the ends. Square brackets hold non-standard residues; d marks the D form. Peptide text beside a SMILES is read from it. * marks the point of attachment. X1 = CC[C@H](C)CCCCC(=O)*; Dab = NCC[C@H](N)C(=O)O

How the values were obtained:
[1] = test system: plasma proteins; conditions: mouse, spiked pooled plasma, ultracentrifugation; cited from earlier work
Source text: Protein binding of polymyxin B is known to be high. However, a difference was found between the current study (unbound fraction 20%) compared with previous studies (8.6% for polymyxin B,[8] 8.4% for colistin[5]), which affects the PTA. In the present study, ultrafiltration was used for determining the unbound fraction, whilst ultracentrifugation was used in the other studies. With the ultrafiltration method, correction for the NSB to the ultrafiltration membranes was needed. In addition, differences in mouse plasma used for determination of polymyxin B protein binding may (partly) explain the ...

[2] = Non-specific binding to ultrafiltration filter; format: physicochemical; conditions: LC-MS/MS
Protocol: The binding of polymyxin B to plasma proteins was determined via ultrafiltration. Polymyxins have a tendency to non-specifically bind to different kinds of material, including ultrafiltration filters. Thus, to correct for polymyxin B loss on the filter, an experiment was performed in which ultrafiltrated (UF) phosphate buffer was spiked with multiple polymyxin B concentrations (ranging from 0.75 to 8 mg/L) and subsequently concentrations were measured. […] Using this relationship, the non-specific binding (NSB) for each measured polymyxin B UF concentration was calculated. Correction for the measured polymyxin B UF concentration using this NSB value was according to the following formula: polymyxin B UF Corrected Concentration = Measured polymyxin B UF Concentration × (1−NSB).
Polymyxin B concentrations in plasma, BAL and ultrafiltrates were determined by a validated LC-MS/MS method,[18] with a lower limit of quantification (LOQ) of 0.2 mg/L for plasma and 0.05 mg/L for BAL fluid and ultrafiltrates. […] The residues were dissolved in 0.1 mL of 0.1% formic acid in water and analysed by LC-MS/MS. […] Polymyxin B was analysed on an XBridge C18 column (5 µm, 2.1 × 150 mm; Waters). […] Calibration curves of polymyxin B ranged from 0.1 to 10 mg/L for plasma and ultrafiltrates, and were quantified with a quadratic regression mode. […]

[3] = test system: K. pneumoniae isolates; test: Dose-response study, thigh infection model, summary over K. pneumoniae isolates; format: in vivo, Klebsiella pneumoniae; conditions: mouse thigh infection
Protocol: Experiments were carried out in the Erasmus Laboratory Animal Science Centre in Rotterdam, The Netherlands in accordance with the EU Animal Directive 2010/63/EU 2010 directive[14] (licence number AVD101002016702) as described before,[15] with approval of the institutional Animal Welfare Body. Outbred female CD-1 mice obtained from Charles River Germany, weighing 20–25 g, 7–8 weeks old, were used in the experiments. The mice were housed under standard conditions with drink and feed supplied ad libitum.
Mice were rendered neutropenic by intraperitoneal injection of cyclophosphamide of 150 and 100 mg/kg, 4 days and 1 day before infection, respectively. On the day of infection, an overnight culture of the bacteria was diluted in fresh CAMHB and incubated at 37°C for 1 or 2 h depending on the growth rate of the strain. After incubation the inoculum was diluted in CAMHB or saline for the thigh and lung infection model, respectively, in order to obtain approximately 5.0 × 10^7 cfu/mL. Mice were then infected intramuscularly in each thigh (thigh infection model) or intranasally under isoflurane anaesthesia (lung infection model), with 0.05 mL of inoculum containing approximately 2.5 × 10^6 bacteria. Analgesia was given in the form of buprenorphine directly after infection, every 12 h.
For dose–response studies, a 6 hourly dosing regimen of 1–32 mg/kg was studied in the thigh infection model. Mice were infected with E. coli […], 15, 51 or 71 or K. pneumoniae ATCC 43816, 17, 58 or 74.
Animals were humanely euthanized 24 h (t = 24 h) after the first dose, unless the welfare of the animals necessitated earlier termination, following animal welfare regulations. Excised thighs were transferred to a pre-cooled 14 mL polypropylene tube containing 2 mL of PBS and were homogenized using a T25 ULTRA-TURRAX (IKA-Werke GmbH & Co, Staufen, Germany). A 10-fold dilution series was prepared and 3 × 10 μL was plated per dilution. The following day, colonies were counted and the number of cfu per thigh was calculated.
The drug effect was determined by the difference between the log10 cfu values at t = 0 h (mean value of two mice) and t = 24 h (value of individual mice) expressed as Δlog10 cfu. The fAUC/MIC, fCmax/MIC and %fT>MIC were determined based on the simulated time–concentration profiles over 24 h as derived in MicLab 2.71 (MEDIMATICS, Maastricht, The Netherlands) using 200 points per dosing interval.
A sigmoid maximum effect (Emax) model was fitted to the PK/PD index versus Δlog10 cfu data by non-linear regression, and static or a 1 log or 2 log kill effect were determined using GraphPad Prism 8.0 (GraphPad, Inc., San Diego, CA, USA). […]

CC[C@H](C)CCCCC(=O)N[C@@H](CCN)C(=O)N[C@H](C(=O)N[C@@H](CCN)C(=O)N[C@H]1CCNC(=O)[C@H]([C@@H](C)O)NC(=O)[C@H](CCN)NC(=O)[C@H](CCN)NC(=O)[C@H](CC(C)C)NC(=O)[C@@H](Cc2ccccc2)NC(=O)[C@H](CCN)NC1=O)[C@@H](C)O [polymyxin B, Polymyxin B sulphate salt] (X1-[Dab]T[Dab][Dab][Dab][dF]L[Dab][Dab]T; lactam 4-C)
Unbound fraction [1]: 8.6%
Non-specific binding (NSB) ([2]; phosphate buffer spiked at 0.75 mg/L): 77% ± 8.3%
Non-specific binding (NSB) ([2]; phosphate buffer spiked at 8 mg/L): 20% ± 0.6%
Isolates in which 1 log kill was found ([3]; K. pneumoniae isolates): 1/4
Target value of fAUC/MIC, static effect, average ([3]; average of four K. pneumoniae isolates, q6h): 22.4
Target value of fAUC/MIC, static effect, median ([3]; median of four K. pneumoniae isolates, q6h): 11.6
Target value of fAUC/MIC, static effect, range ([3]; range over four K. pneumoniae isolates, q6h): 5.9–60.5
